Source: PubChem BioAssay (NCI)
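Test compounds were applied to cells in 96-well plates for 48 hours at 5 doses. TGI: concentration producing complete growth inhibition.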

Legend:
Assay in all cases: growth of human tumour cells (NCI), 48 h
[1] = test system: HL-60(TB) leukemia
[2] = test system: SK-OV-3 ovarian
[3] = test system: DU-145 prostate
[4] = test system: OVCAR-4 ovarian
[5] = test system: MDA-N
[6] = test system: SN12C renal
[7] = test system: ACHN renal
[8] = test system: NCI-H226 lung
[9] = test system: HT29 colon
[10] = test system: MCF7 breast
[11] = test system: CCRF-CEM leukemia
[12] = test system: MDA-MB-435
[13] = test system: NCI-H522 lung
[14] = test system: SF-295 CNS
[15] = test system: 786-0 renal
[16] = test system: SW-620 colon
[17] = test system: OVCAR-5 ovarian
[18] = test system: HCT-116 colon
[19] = test system: M14 melanoma
[20] = test system: U251 CNS
[21] = test system: LOX IMVI melanoma
[22] = test system: SNB-19 CNS
[23] = test system: NCI-H23 lung
[24] = test system: SK-MEL-5 melanoma
[25] = test system: NCI/ADR-RES ovarian
[26] = test system: T-47D breast
[27] = test system: CAKI-1 renal
[28] = test system: A498 renal
[29] = test system: HS 578T breast
[30] = test system: OVCAR-8 ovarian
[31] = test system: HOP-92 NSCLC
[32] = test system: SK-MEL-28 melanoma
[33] = test system: TK-10 renal
[34] = test system: K-562 leukemia
[35] = test system: HCT-15 colon
[36] = test system: MOLT-4 leukemia
[37] = test system: UACC-62 melanoma
[38] = test system: MALME-3M melanoma
[39] = test system: A549 NSCLC
[40] = test system: PC-3 prostate
[41] = test system: UACC-257 melanoma
[42] = test system: RPMI-8226 leukemia
[43] = test system: UO-31 renal
[44] = test system: BT-549 breast
[45] = test system: SF-268 CNS
[46] = test system: COLO 205 colon
[47] = test system: SF-539 CNS
[48] = test system: SK-MEL-2 melanoma
[49] = test system: OVCAR-3 ovarian
[50] = test system: MDA-MB-231 breast
[51] = test system: HCC-2998 colon
[52] = test system: NCI-H460 lung
[53] = test system: EKVX NSCLC
[54] = test system: HOP-62 NSCLC
[55] = test system: SNB-75 CNS
[56] = test system: IGROV1 ovarian
[57] = test system: KM12 colon
[58] = test system: RXF 393 renal

## CN(Cc1ccccc1)c1cc(=O)n(C)c(=O)[nH]1
[1]
  TGI: > 100 µM
[2]
  TGI: > 100 µM
[3]
  TGI: > 100 µM
[4]
  TGI: > 100 µM
[5]
  TGI: > 100 µM
[6]
  TGI: > 100 µM
[7]
  TGI: > 100 µM
[8]
  TGI: > 100 µM
[9]
  TGI: > 100 µM
[10]
  TGI: > 100 µM
[11]
  TGI: > 100 µM
[12]
  TGI: > 100 µM
[13]
  TGI: > 100 µM
[14]
  TGI: > 100 µM
[15]
  TGI: > 100 µM
[16]
  TGI: > 100 µM
[17]
  TGI: > 100 µM
[18]
  TGI: > 100 µM
[19]
  TGI: > 100 µM
[20]
  TGI: > 100 µM
[21]
  TGI: > 100 µM
[22]
  TGI: > 100 µM
[23]
  TGI: > 100 µM
[24]
  TGI: > 100 µM
[25]
  TGI: > 100 µM
[26]
  TGI: > 100 µM
[27]
  TGI: > 100 µM
[28]
  TGI: > 100 µM
[29]
  TGI: > 100 µM
[30]
  TGI: > 100 µM
[31]
  TGI: > 100 µM
[32]
  TGI: > 100 µM
[33]
  TGI: > 100 µM
[34]
  TGI: > 100 µM
[35]
  TGI: > 100 µM
[36]
  TGI: > 100 µM
[37]
  TGI: > 100 µM
[38]
  TGI: > 100 µM
[39]
  TGI: > 100 µM
[40]
  TGI: > 100 µM
[41]
  TGI: > 100 µM
[42]
  TGI: > 100 µM
[43]
  TGI: > 100 µM
[44]
  TGI: > 100 µM
[45]
  TGI: > 100 µM
[46]
  TGI: > 100 µM
[47]
  TGI: > 100 µM
[48]
  TGI: > 100 µM
[49]
  TGI: > 100 µM
[50]
  TGI: > 100 µM
[51]
  TGI: > 100 µM
[52]
  TGI: > 100 µM

## O=C(Cc1ccccc1)NN1C(=O)/C(=C\c2ccccc2)SC1=Nc1ccccc1
[2]
  TGI: > 100 µM
[3]
  TGI: > 100 µM
[4]
  TGI: > 100 µM
[5]
  TGI: > 100 µM
[53]
  TGI: > 100 µM
[6]
  TGI: > 100 µM
[7]
  TGI: > 100 µM
[8]
  TGI: > 100 µM
[9]
  TGI: > 100 µM
[10]
  TGI: > 100 µM
[12]
  TGI: > 100 µM
[54]
  TGI: > 100 µM
[14]
  TGI: > 100 µM
[55]
  TGI: > 100 µM
[15]
  TGI: > 100 µM
[16]
  TGI: > 100 µM
[17]
  TGI: > 100 µM
[18]
  TGI: > 100 µM
[19]
  TGI: > 100 µM
[20]
  TGI: > 100 µM
[22]
  TGI: > 100 µM
[23]
  TGI: > 100 µM
[24]
  TGI: > 100 µM
[25]
  TGI: > 100 µM
[26]
  TGI: > 100 µM
[28]
  TGI: > 100 µM
[56]
  TGI: > 100 µM
[29]
  TGI: > 100 µM
[30]
  TGI: > 100 µM
[31]
  TGI: > 100 µM
[32]
  TGI: > 100 µM
[33]
  TGI: > 100 µM
[35]
  TGI: > 100 µM
[36]
  TGI: > 100 µM
[37]
  TGI: > 100 µM
[39]
  TGI: > 100 µM
[41]
  TGI: > 100 µM
[57]
  TGI: > 100 µM
[43]
  TGI: > 100 µM
[44]
  TGI: > 100 µM
[45]
  TGI: > 100 µM
[46]
  TGI: > 100 µM
[47]
  TGI: > 100 µM
[58]
  TGI: > 100 µM
[48]
  TGI: > 100 µM
[49]
  TGI: > 100 µM
[50]
  TGI: > 100 µM
[51]
  TGI: > 100 µM
[52]
  TGI: > 100 µM

## CCCCn1cnc2c(c(CC#N)nn2-c2ccccc2)c1=N
[1]
  TGI: > 100 µM
[2]
  TGI: > 100 µM
[3]
  TGI: > 100 µM
[4]
  TGI: > 100 µM
[5]
  TGI: > 100 µM
[53]
  TGI: > 100 µM
[6]
  TGI: > 100 µM
[7]
  TGI: > 100 µM
[8]
  TGI: > 100 µM
[9]
  TGI: > 100 µM
[10]
  TGI: > 100 µM
[11]
  TGI: > 100 µM
[12]
  TGI: > 100 µM
[54]
  TGI: > 100 µM
[13]
  TGI: > 100 µM
[14]
  TGI: > 100 µM
[55]
  TGI: > 100 µM
[15]
  TGI: > 100 µM
[16]
  TGI: > 100 µM
[17]
  TGI: > 100 µM
[18]
  TGI: > 100 µM
[19]
  TGI: > 100 µM
[20]
  TGI: > 100 µM
[21]
  TGI: > 100 µM
[22]
  TGI: > 100 µM
[23]
  TGI: > 100 µM
[24]
  TGI: 46.7 µM
[25]
  TGI: > 100 µM
[26]
  TGI: > 100 µM
[27]
  TGI: > 100 µM
[28]
  TGI: 91.6 µM
[56]
  TGI: > 100 µM
[29]
  TGI: > 100 µM
[30]
  TGI: > 100 µM
[31]
  TGI: > 100 µM
[32]
  TGI: > 100 µM
[33]
  TGI: > 100 µM
[34]
  TGI: > 100 µM
[35]
  TGI: > 100 µM
[36]
  TGI: > 100 µM
[37]
  TGI: 53.1 µM
[38]
  TGI: > 100 µM
[39]
  TGI: > 100 µM
[40]
  TGI: > 100 µM
[41]
  TGI: > 100 µM
[42]
  TGI: 73.4 µM
[57]
  TGI: > 100 µM
[43]
  TGI: > 100 µM
[44]
  TGI: > 100 µM
[45]
  TGI: > 100 µM
[46]
  TGI: 92.8 µM
[58]
  TGI: > 100 µM
[48]
  TGI: 62.1 µM
[49]
  TGI: > 100 µM
[50]
  TGI: > 100 µM
[51]
  TGI: > 100 µM
[52]
  TGI: > 100 µM

## CCC/C=C/C=C/C1CC(O)C(O)C(=O)C1CO (configuration not stated)
[1]
  TGI: > 100 µM
[2]
  TGI: > 100 µM
[3]
  TGI: > 100 µM
[4]
  TGI: > 100 µM
[5]
  TGI: > 100 µM
[53]
  TGI: > 100 µM
[6]
  TGI: > 100 µM
[7]
  TGI: > 100 µM
[8]
  TGI: > 100 µM
[9]
  TGI: > 100 µM
[10]
  TGI: > 100 µM
[11]
  TGI: > 100 µM
[12]
  TGI: > 100 µM
[13]
  TGI: > 100 µM
[14]
  TGI: > 100 µM
[55]
  TGI: > 100 µM
[15]
  TGI: > 100 µM
[16]
  TGI: > 100 µM
[17]
  TGI: > 100 µM
[18]
  TGI: > 100 µM
[19]
  TGI: > 100 µM
[20]
  TGI: > 100 µM
[21]
  TGI: > 100 µM
[22]
  TGI: > 100 µM
[23]
  TGI: > 100 µM
[24]
  TGI: > 100 µM
[25]
  TGI: > 100 µM
[26]
  TGI: > 100 µM
[27]
  TGI: > 100 µM
[56]
  TGI: > 100 µM
[29]
  TGI: > 100 µM
[30]
  TGI: > 100 µM
[31]
  TGI: > 100 µM
[32]
  TGI: > 100 µM
[33]
  TGI: > 100 µM
[34]
  TGI: > 100 µM
[35]
  TGI: > 100 µM
[37]
  TGI: > 100 µM
[39]
  TGI: > 100 µM
[40]
  TGI: > 100 µM
[41]
  TGI: > 100 µM
[42]
  TGI: > 100 µM
[57]
  TGI: > 100 µM
[43]
  TGI: > 100 µM
[44]
  TGI: > 100 µM
[45]
  TGI: > 100 µM
[46]
  TGI: > 100 µM
[47]
  TGI: > 100 µM
[58]
  TGI: > 100 µM
[48]
  TGI: > 100 µM
[49]
  TGI: > 100 µM
[50]
  TGI: > 100 µM
[51]
  TGI: > 100 µM
[52]
  TGI: > 100 µM
